Experimental data reported in ChEMBL document CHEMBL1146289, “1,5-Biaryl pyrrole derivatives as EP1 receptor antagonists: Structure-activity relationships of 4- and 5-substituted benzoic acid derivatives” (Bioorg Med Chem Lett, 2007).

Tests used:
[1] = target: T1, Prostaglandin E2 receptor EP1 subtype (Homo sapiens, UniProt P34995); experiment: Displacement of [3H]PGE2 from human recombinant EP1 receptor expressed in CHO cell membranes
T1 sequence (P34995 whole entry): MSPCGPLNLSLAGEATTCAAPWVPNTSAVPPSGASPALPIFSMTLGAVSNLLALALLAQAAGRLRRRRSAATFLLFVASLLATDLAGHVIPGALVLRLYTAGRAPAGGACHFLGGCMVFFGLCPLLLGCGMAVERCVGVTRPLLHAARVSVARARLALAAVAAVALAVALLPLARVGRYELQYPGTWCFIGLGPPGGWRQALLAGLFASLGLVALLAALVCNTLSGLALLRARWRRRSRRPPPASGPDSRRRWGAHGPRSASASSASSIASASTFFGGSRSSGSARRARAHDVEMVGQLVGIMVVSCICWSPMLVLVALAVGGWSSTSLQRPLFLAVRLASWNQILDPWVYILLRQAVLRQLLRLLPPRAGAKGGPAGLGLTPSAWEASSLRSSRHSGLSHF

[2] = Tmax in rat at 3 mg/kg, po; format: ADME, organism-based; set-up: dose 3 mg/kg, route oral; conditions: in vivo
[3] = test system: Rattus norvegicus; experiment: AUC (0-t) in rat at 3 mg/kg, po; format: ADME, organism-based, Plasma; set-up: dose 3 mg/kg, route oral; conditions: in vivo
[4] = Cmax in rat at 3 mg/kg, po; format: ADME, organism-based; set-up: dose 3 mg/kg, route oral; conditions: in vivo
[5] = test system: Rattus norvegicus; experiment: Reversal of hypersensitivity in rat FCA model of inflammatory pain at 5 mg/kg, po; format: functional
[6] = target: Cytochrome P450 2C9 (Homo sapiens, UniProt P11712); experiment: Inhibition of CYP2C9; format: ADME
Sequence of Cytochrome P450 2C9 (P11712 whole entry): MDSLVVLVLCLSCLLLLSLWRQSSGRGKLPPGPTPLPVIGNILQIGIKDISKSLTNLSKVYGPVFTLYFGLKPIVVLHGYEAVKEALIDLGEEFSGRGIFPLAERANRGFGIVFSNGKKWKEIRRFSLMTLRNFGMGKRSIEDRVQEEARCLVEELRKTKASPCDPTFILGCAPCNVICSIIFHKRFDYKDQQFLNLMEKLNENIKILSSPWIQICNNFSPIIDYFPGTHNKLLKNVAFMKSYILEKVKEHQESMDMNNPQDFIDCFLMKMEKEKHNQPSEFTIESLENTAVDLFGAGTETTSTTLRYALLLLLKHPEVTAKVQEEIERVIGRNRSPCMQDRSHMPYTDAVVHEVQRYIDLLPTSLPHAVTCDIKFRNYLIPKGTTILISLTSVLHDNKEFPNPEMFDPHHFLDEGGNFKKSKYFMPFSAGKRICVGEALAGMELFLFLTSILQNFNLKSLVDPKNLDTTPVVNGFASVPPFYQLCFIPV

[7] = target: Cytochrome P450 2C19 (Homo sapiens, UniProt P33261); experiment: Inhibition of CYP2C19; format: ADME
Sequence of Cytochrome P450 2C19 (P33261 whole entry): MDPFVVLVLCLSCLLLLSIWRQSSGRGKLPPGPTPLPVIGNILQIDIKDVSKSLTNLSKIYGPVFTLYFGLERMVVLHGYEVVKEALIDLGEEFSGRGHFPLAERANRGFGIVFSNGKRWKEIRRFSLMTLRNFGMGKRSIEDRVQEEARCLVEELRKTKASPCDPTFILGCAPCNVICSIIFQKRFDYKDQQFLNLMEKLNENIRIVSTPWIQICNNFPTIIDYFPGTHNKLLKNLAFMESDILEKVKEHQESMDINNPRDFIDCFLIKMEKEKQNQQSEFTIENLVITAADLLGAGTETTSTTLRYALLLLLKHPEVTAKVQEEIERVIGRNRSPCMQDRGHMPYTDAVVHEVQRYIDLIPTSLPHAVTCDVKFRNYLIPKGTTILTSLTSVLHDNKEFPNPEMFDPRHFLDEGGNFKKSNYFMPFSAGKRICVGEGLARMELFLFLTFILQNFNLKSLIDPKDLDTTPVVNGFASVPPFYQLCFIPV

[8] = target: T2, Thromboxane A2 receptor (Homo sapiens, UniProt P21731); experiment: Inhibition of TP receptor
T2 sequence (P21731 whole entry): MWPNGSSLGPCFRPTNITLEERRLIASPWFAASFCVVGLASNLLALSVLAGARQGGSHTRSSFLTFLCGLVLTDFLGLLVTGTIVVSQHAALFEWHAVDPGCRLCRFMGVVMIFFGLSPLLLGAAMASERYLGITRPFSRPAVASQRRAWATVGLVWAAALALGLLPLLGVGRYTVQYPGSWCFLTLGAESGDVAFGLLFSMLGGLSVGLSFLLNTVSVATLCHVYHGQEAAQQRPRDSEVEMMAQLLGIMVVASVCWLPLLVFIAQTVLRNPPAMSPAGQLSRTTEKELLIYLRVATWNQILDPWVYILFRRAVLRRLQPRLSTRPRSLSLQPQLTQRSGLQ

[9] = target: T1, Prostaglandin E2 receptor EP1 subtype; experiment: Inhibition of EP1 receptor expressed in CHO cells assessed as calcium mobilization by FLIPR assay; format: functional, cell-based
[10] = target: T3, Prostaglandin E2 receptor EP3 subtype (Homo sapiens, UniProt P43115); experiment: Inhibition of EP3 receptor expressed in CHO cells assessed as calcium mobilization by FLIPR assay; format: functional, cell-based
T3 sequence (P43115 whole entry): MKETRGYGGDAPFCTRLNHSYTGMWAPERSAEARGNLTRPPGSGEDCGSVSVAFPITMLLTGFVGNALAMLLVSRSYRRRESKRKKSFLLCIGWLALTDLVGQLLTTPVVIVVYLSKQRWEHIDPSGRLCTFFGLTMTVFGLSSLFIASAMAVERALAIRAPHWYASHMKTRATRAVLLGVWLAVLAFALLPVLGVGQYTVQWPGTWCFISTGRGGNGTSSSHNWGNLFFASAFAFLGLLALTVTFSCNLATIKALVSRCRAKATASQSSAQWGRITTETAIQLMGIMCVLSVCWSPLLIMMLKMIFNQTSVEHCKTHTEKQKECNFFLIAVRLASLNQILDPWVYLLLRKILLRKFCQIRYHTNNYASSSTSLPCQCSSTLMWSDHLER

[11] = target: T4, Cytochrome P450 1A2 (Homo sapiens, UniProt P05177); experiment: Inhibition of CYP1A2; format: ADME
T4 sequence (P05177 whole entry): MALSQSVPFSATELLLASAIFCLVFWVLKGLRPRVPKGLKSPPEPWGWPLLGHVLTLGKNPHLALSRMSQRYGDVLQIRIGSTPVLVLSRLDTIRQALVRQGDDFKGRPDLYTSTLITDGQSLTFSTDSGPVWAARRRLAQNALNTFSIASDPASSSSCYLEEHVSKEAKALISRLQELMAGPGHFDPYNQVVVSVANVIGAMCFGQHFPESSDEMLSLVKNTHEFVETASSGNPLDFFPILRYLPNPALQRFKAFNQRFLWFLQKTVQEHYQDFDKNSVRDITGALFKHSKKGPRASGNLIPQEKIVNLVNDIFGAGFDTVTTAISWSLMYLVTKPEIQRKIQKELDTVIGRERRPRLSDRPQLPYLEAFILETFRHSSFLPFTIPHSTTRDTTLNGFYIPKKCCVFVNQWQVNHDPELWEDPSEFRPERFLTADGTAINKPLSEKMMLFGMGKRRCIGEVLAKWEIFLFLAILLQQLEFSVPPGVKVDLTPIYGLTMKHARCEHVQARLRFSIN

[12] = target: T5, Thromboxane A2 receptor (Homo sapiens) (UniProt P21731)
T5 sequence (whole entry): T2 sequence (P21731 whole entry)

[13] = organism: Rattus norvegicus; experiment: Reversal of hypersensitivity in rat FCA model of inflammatory pain; format: functional
[14] = target: Prostaglandin E2 receptor EP4 subtype (Homo sapiens, UniProt P35408); experiment: Inhibition of EP4 receptor
Sequence of Prostaglandin E2 receptor EP4 subtype (P35408 whole entry): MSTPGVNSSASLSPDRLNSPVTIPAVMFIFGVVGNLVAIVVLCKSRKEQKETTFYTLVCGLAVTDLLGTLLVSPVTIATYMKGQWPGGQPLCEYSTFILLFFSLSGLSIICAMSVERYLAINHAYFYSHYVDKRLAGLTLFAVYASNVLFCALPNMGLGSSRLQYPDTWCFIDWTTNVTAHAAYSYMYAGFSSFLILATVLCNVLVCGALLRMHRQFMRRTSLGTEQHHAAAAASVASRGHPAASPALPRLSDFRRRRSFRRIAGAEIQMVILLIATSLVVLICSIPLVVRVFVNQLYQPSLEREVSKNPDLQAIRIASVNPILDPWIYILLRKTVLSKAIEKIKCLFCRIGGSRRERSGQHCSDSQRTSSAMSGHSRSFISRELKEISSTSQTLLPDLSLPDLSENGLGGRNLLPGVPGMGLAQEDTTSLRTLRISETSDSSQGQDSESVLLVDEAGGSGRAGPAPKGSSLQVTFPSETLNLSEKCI

[15] = target: Cytochrome P450 2D6 (Homo sapiens, UniProt P10635); experiment: Inhibition of CYP2D6; format: ADME
Sequence of Cytochrome P450 2D6 (P10635 whole entry): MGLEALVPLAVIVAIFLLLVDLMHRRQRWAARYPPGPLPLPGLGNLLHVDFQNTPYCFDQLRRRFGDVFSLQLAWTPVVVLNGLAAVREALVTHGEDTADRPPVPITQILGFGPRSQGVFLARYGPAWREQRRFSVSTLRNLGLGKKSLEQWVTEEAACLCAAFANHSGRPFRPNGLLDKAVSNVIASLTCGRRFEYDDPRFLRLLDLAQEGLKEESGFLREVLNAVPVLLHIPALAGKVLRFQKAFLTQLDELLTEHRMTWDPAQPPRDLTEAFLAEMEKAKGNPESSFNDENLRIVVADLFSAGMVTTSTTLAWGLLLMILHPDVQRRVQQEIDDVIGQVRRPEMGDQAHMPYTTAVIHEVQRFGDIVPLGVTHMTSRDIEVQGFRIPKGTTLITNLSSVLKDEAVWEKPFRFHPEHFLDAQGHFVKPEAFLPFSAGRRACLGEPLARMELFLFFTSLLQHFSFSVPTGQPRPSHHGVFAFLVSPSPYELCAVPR

[16] = target: Cytochrome P450 3A4 (Homo sapiens, UniProt P08684); experiment: Inhibition of CYP3A4; format: ADME
Sequence of Cytochrome P450 3A4 (P08684 whole entry): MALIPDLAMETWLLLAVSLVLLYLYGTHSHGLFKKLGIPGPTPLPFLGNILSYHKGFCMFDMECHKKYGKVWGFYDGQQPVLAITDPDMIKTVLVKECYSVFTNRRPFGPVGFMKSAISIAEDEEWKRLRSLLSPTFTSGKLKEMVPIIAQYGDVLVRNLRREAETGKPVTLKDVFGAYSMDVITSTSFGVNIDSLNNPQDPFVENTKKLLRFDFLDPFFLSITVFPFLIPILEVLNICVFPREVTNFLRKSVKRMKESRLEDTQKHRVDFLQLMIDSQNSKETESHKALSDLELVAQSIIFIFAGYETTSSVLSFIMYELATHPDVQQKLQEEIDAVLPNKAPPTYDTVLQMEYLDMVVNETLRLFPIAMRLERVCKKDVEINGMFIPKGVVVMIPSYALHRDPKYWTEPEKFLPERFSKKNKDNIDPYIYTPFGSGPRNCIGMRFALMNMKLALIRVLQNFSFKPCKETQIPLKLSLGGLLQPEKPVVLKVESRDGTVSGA

Cc1ccc(-c2cc(Cl)ccc2OCc2ccc(F)cc2F)n1-c1cc(Br)cc(C(=O)O)c1
IC50 [1]: 5.01 nM

Cc1ccc(-c2cc(Cl)ccc2OCc2ccc(F)cc2)n1-c1cc(C(=O)O)ccc1Cl
IC50 [1]: 316 nM

Cc1ccc(-c2cc(Cl)ccc2OCc2ccc(F)cc2)n1-c1cc(NS(C)(=O)=O)cc(C(=O)O)c1
IC50 [1]: 1.58 nM

Cc1ccc(-c2cc(Br)ccc2OCc2ccc(F)cc2F)n1-c1cc(C(=O)O)cc(N2CCCC2=O)c1
IC50 [1]: 2 nM

Cc1ccc(-c2cc(Cl)ccc2OCc2ccc(F)cc2F)n1-c1cc(C(=O)O)ccc1Cl
IC50 [1]: 158 nM

COC(=O)Nc1cc(C(=O)O)cc(-n2c(C)ccc2-c2cc(Cl)ccc2OCc2ccccc2)c1
IC50 [1]: 5.01 nM

CC(=O)Nc1cc(C(=O)O)cc(-n2c(C)ccc2-c2cc(I)ccc2OCc2ccc(F)cc2F)c1
IC50 [1]: 1.58 nM

Cc1ccc(-c2cc(C(F)(F)F)ccc2OCc2ccccc2)n1-c1cc(C(=O)O)ccc1F
IC50 [1]: 6.31 nM

CCOc1ccc(C(=O)O)cc1-n1c(C)ccc1-c1cc(Cl)ccc1OCc1ccccc1
IC50 [1]: 126 nM

Cc1ccc(-c2cc(Br)ccc2OCc2ccc(F)cc2F)n1-c1cc(C(=O)O)cc(C(F)(F)F)c1
IC50 [1]: 12.6 nM

CC(=O)Nc1cc(C(=O)O)cc(-n2c(C)ccc2-c2cc(Cl)ccc2OCc2ccc(F)cc2)c1
Tmax [2]: 30 min
IC50 [1]: 2.51 nM
AUC [3]: 20 kg·min/L
Cmax [4]: 2080 nM
Activity [5]: 94%

CC(=O)Nc1cc(C(=O)O)cc(-n2c(C)ccc2-c2cc(C(F)(F)F)ccc2OCc2ccccc2)c1
Tmax [2]: 42 min
IC50 [1]: 1.26 nM
Cmax [4]: 20 nM

Cc1ccc(-c2cc(Cl)ccc2OCc2ccc(F)cc2F)n1-c1cc(Cl)cc(C(=O)O)c1
IC50 [1]: 3.98 nM

CC(=O)Nc1cc(C(=O)O)cc(-n2c(C)ccc2-c2cc(Br)ccc2OCc2ccc(F)cc2F)c1
IC50 [6]: ≥ 18000 nM
Tmax [2]: 30 min
IC50 [1]: 0.398 nM
AUC [3]: 21 kg·min/L
IC50 [7]: ≥ 18000 nM
IC50 [8]: 2.51 nM
Ki [9]: 0.1 nM
Ki [10]: 501 nM
IC50 [11]: ≥ 18000 nM
pKb [12]: 9
ED50 [13]: 1.1 mg/kg
IC50 [14]: 158 nM
IC50 [15]: ≥ 18000 nM
Cmax [4]: 1410 nM
Activity [5]: 72%
IC50 [16]: ≥ 18000 nM

Cc1ccc(-c2cc(C(F)(F)F)ccc2OCc2ccc(F)cc2)n1-c1cc(C(=O)O)cc(N2CCCS2(=O)=O)c1
IC50 [1]: 7.94 nM

Cc1ccc(-c2cc(Br)ccc2OCc2ccc(F)cc2)n1-c1cc(C(=O)O)ccc1F
Tmax [2]: 30 min
IC50 [1]: 6.31 nM
AUC [3]: 6 kg·min/L
Cmax [4]: 230 nM

Cc1ccc(-c2cc(Cl)ccc2OCc2ccc(F)cc2F)n1-c1cc(C(=O)O)ccc1F
Tmax [2]: 30 min
IC50 [1]: 6.31 nM
AUC [3]: 4 kg·min/L
Cmax [4]: 230 nM

CC(=O)Nc1cc(C(=O)O)cc(-n2c(C)ccc2-c2cc(Cl)ccc2OCc2ccccc2)c1
Tmax [2]: 30 min
IC50 [1]: 2 nM
AUC [3]: 8 kg·min/L
Cmax [4]: 580 nM

Cc1ccc(-c2cc(Cl)ccc2OCc2ccccc2)n1-c1cc(C(=O)O)cc(N2CCCS2(=O)=O)c1
IC50 [1]: 5.01 nM

COc1ccc(C(=O)O)cc1-n1c(C)ccc1-c1cc(Cl)ccc1OCc1ccccc1
IC50 [1]: 251 nM

CC(=O)Nc1cc(C(=O)O)cc(-n2c(C)ccc2-c2cc(Br)ccc2OCc2ccc(F)cc2)c1
IC50 [1]: 0.794 nM

Cc1ccc(-c2cc(Cl)ccc2OCc2ccccc2)n1-c1cc(Br)cc(C(=O)O)c1
Tmax [2]: 30 min
IC50 [1]: 5.01 nM
AUC [3]: 6 kg·min/L
Cmax [4]: 310 nM

CC(=O)Nc1cc(C(=O)O)cc(-n2c(C)ccc2-c2cc(Br)ccc2OCc2ccccc2)c1
IC50 [1]: 1.26 nM

Cc1ccc(-c2cc(Br)ccc2OCc2ccc(F)cc2F)n1-c1cc(C(=O)O)cc(N2CCCCC2=O)c1
IC50 [1]: 1.26 nM

Cc1ccc(-c2cc(Br)ccc2OCc2ccc(F)cc2F)n1-c1cc(Cl)cc(C(=O)O)c1
IC50 [1]: 3.98 nM

CC(=O)Nc1cc(C(=O)O)cc(-n2c(C)ccc2-c2cc(F)ccc2OCc2ccc(F)cc2)c1
Tmax [2]: 30 min
IC50 [1]: 3.98 nM
AUC [3]: 60 kg·min/L
Cmax [4]: 2950 nM
Activity [5]: 55%

Cc1ccc(-c2cc(Br)ccc2OCc2ccc(F)cc2F)n1-c1cc(N)cc(C(=O)O)c1
Tmax [2]: 30 min
IC50 [1]: 0.501 nM
AUC [3]: < 1 kg·min/L
Cmax [4]: 50 nM

Cc1ccc(-c2cc(Cl)ccc2OCc2ccccc2)n1-c1cc(N)cc(C(=O)O)c1
IC50 [1]: 3.98 nM

Cc1ccc(-c2cc(Br)ccc2OCc2ccccc2)n1-c1cc(N)cc(C(=O)O)c1
IC50 [1]: 3.16 nM

CC(=O)N(C)c1cc(C(=O)O)cc(-n2c(C)ccc2-c2cc(Br)ccc2OCc2ccc(F)cc2F)c1
IC50 [1]: 1.26 nM

Cc1ccc(-c2cc(Cl)ccc2OCc2ccc(F)cc2F)n1-c1cc(C(=O)O)cc(C(F)(F)F)c1
IC50 [1]: 10 nM
